Laboratory results published in PMC11853379, “Glioblastoma Cell Migration, Invasion and Vasculogenic Mimicry Downmodulated by Novel uPAcyclin Derivatives” (Cells, 2025).
Read-outs that look alike come from different tables or passages of the source. Blank lines part the entries; values can stand above or below the molecule they belong to. Positions of bridges follow the written chain, without caps; N, C: chain ends. Residues, ends and D or L forms follow the SMILES beside them.

What was measured:
Format in all cases: cell-based, human
U87-MG cells [1] = conditions: 24 h; for reduction of vessel formation (VM, branching points): U87-MG on Geltrex
Experimental: (§1) The tube formation assay was performed as previously described by Franco et al., using 3 × 10^4 U87-MG and 1.5 × 10^4 U251 cells/sample in the absence or presence of specific effectors included at time 0. The evaluation of vascular-like structures, as the branching points number, was performed using the Inverted Microscope DMI Leica 6000 ([…], Milan, Italy) and assessed in 4/5 random fields using the ImageJ 1.52a Software.
(§2) Here, U87-MG cells were plated onto Geltrex^TM, and the formation of round vascular-type structures was assessed after 24 h (Figure 6A). […] If cells are pretreated with nanomolar concentrations of the indicated cyclic peptides for 40 min at 37 °C prior to the VM assay, the number of intersections decreases. For this assay, the peptides [Ala^2, Ala^5]uPAcyclin, [Ala^1]uPAcyclin [Ala^4]uPAcyclin and [Ala^8]uPAcyclin, in addition to the parent uPAcyclin, were selected based on previous considerations. In the histogram shown in Figure 6B, the number of intersections per field is reported for untreated or peptide-exposed samples. As a reference, the uPAcyclin is indeed able to reduce vessel formation by 40% at 1 nM and by 70% at 100 nM. […] [Ala^2,Ala^5]uPAcyclin and [Ala^8]uPAcyclin are able to reduce VM by 50% at 1 nM and by 70% at 100 nM, confirming that they are both efficient inhibitors of GBM functions supporting malignancy. The formation of VM was also monitored in U251-MG cells, which were seeded under the same conditions employed for U87-MG cells. Representative images, reported in Figure 7A, show the elongated structures obtained after 24 h in Geltrex^TM matrix and their reduction in the cells pre-exposed to uPAcyclin, [Ala^2,Ala^5]uPAcyclin and [Ala^8]uPAcyclin. As shown in the histogram reported in Figure 7B, the uPAcyclin is indeed able to reduce vessel formation by 50% at 1 nM and by 80% at 100 nM. […] It is of note that, unlike [Ala^2,Ala^5]uPAcyclin or [Ala^8]uPAcyclin, [Ala^1]uPAcyclin is ineffective, even if employed at 100 nM.
Figure 6 Inhibition of vasculogenic mimicry by U87-MG glioblastoma cells. (A) Representative images of U87-MG cells cultured in DMEM/10% FBS (no matrix) or seeded onto Geltrex^TM in multiwell-96 (3 × 10^4 cells/well). When specified, cells were pre-treated with diluents (untreated) or with the indicated peptides at the indicated concentrations for 40 min at 37 °C prior to the VM assay. All images are taken after 24 h with the DMI Leica 6000 Inverted Microscope and 50× total magnification; scale bar: 100 μm. (B) The quantitation of branching points, defined as the intersection of at least three tubes (red arrows), was performed at 24 h either in control cells and cells exposed to the peptides and reported in the histogram (** p-value < 0.005; *** p-value < 0.001).

U251-MG cells [2] = test: Vasculogenic mimicry (tube formation) assay, U251-MG on Geltrex; conditions: 24 h
Experimental: as §1, §2
Figure 7 Inhibition of vasculogenic mimicry by U251-MG glioblastoma cells. (A) Representative images of U251-MG cells cultured in DMEM/10% FBS (no matrix) or seeded onto Geltrex^TM in multiwell-96 (1.5 × 10^4 cells/well). When specified, cells were pretreated with diluents (untreated) or with the indicated peptides at the indicated concentrations for 40 min at 37 °C prior to the VM assay. All images are taken after 24 h with the DMI Leica 6000 Inverted Microscope with 50× total magnification; scale bar: 100 μm. (B) The quantitation and expression of branching points (red arrows), is accomplished as reported in the legend of Figure 6 (*** p-value < 0.001).

U87-MG cells [3] = test: Cell viability / proliferation, Trypan blue exclusion, U87-MG; conditions: DMEM/10% FBS, 100 nM peptide, 24, 48 and 72 h
Experimental: (§3) Cell viability was tested in DMEM/10% FBS in the presence of 100 nM uPAcyclin or Ala peptides via a Trypan blue exclusion assay, as previously reported, using 4 × 10^4 U87-MG and U251-MG glioblastoma cells/sample followed for 24, 48 and 72 h.
(§4) To rule out the possibility that the effects of uPAcyclin and Ala peptides could be due to the inhibition of cell proliferation, cell growth in the presence of these peptides was monitored for 24, 48 and 72 h (Supporting Information, Figure S2). U87-MG and U251-MG cells were exposed to diluents or to serum in the presence of 100 nM uPAcyclin, [Ala^1]uPAcyclin, [Ala^4]uPAcyclin, [Ala^8]uPAcyclin and [Ala^2,Ala^5]uPAcyclin (for the peptide choice, see above), and cell viability was tested at the indicated times using Trypan blue (Figure S2A,B). Both cell lines proliferate in culture in the presence of serum (DMEM/10% FBS), but not in a serum-free medium (DMEM). The growth rates of the U87-MG and U251-MG glioblastoma cell lines were similar, regardless of the exposure to 100 nM of uPAcyclin, [Ala^1]uPAcyclin, [Ala^4]uPAcyclin and [Ala^8]uPAcyclin.
(§5) Figure S5. Cell Viability Assay.
(§6) Unaffected proliferation of U87-MG and U251-MG glioblastoma cells exposed to uPacyclin and selected Ala-peptides. 2x104 U87-MG (A) or U251-MG (B) were seeded in 12 well plates for 24 h in DMEM-10% FBS and serum-starved for 24 h. Then, cells were counted (0 h) and grown in DMEM (no serum) or DMEM-10% FBS, in the presence of 100 nM peptides for 24, 48 and 72 h. Histograms represent the average of two separate experiments undertaken in duplicate.
(§7) (1 picture or pasted object on this page, not shown here)

U251-MG cells [4] = test: Cell viability / proliferation, Trypan blue exclusion, U251-MG; conditions: DMEM/10% FBS, 100 nM peptide, 24, 48 and 72 h
Experimental: as §3, §4, §5, §6, §7

IC50 (U87-MG cells [1]): < 1 nM
Compound: CC(=O)N[C@@H](CCCCN)C(=O)N[C@@H](C)C(=O)N[C@H]1CCC(=O)NCCCC[C@@H](C(N)=O)NC(=O)[C@H](CC(C)C)NC(=O)[C@H](CCC(=O)O)NC(=O)[C@H](CCC(=O)O)NC(=O)[C@@H]2CCCN2C(=O)[C@H](C)NC(=O)[C@H](CO)NC1=O [[Ala^2,Ala^5]uPAcyclin] (Ac-KAESAPEELK-NH2; lactam 3-10)
reduction of vessel formation (VM, branching points) (U87-MG cells [1]; 1 nM peptide): 50%
reduction of vessel formation (VM, branching points) (U87-MG cells [1]; 100 nM peptide): 70%
inhibition of VM compared to uPAcyclin (in words) (U251-MG cells [2]): slightly more effective inhibitors
growth rate / proliferation rate (U87-MG cells [3]): slight but not significant decrease
growth rate / proliferation rate (U251-MG cells [4]): slight but not significant decrease

IC50 (U87-MG cells [1]): < 1 nM
Compound: CC(=O)N[C@@H](CCCCN)C(=O)N1CCC[C@H]1C(=O)N[C@H]1CCC(=O)NCCCC[C@@H](C(N)=O)NC(=O)[C@H](CC(C)C)NC(=O)[C@H](C)NC(=O)[C@H](CCC(=O)O)NC(=O)[C@@H]2CCCN2C(=O)[C@@H]2CCCN2C(=O)[C@H](CO)NC1=O [[Ala^8]uPAcyclin] (Ac-KPESPPEALK-NH2; lactam 3-10)
reduction of vessel formation (VM, branching points) (U87-MG cells [1]; 1 nM peptide): 50%
reduction of vessel formation (VM, branching points) (U87-MG cells [1]; 100 nM peptide): 70%
inhibition of VM compared to uPAcyclin (in words) (U251-MG cells [2]): slightly more effective inhibitors
growth rate / proliferation rate (U87-MG cells [3]): similar
growth rate / proliferation rate (U251-MG cells [4]): similar

Compound: CC(=O)N[C@@H](CCCCN)C(=O)N1CCC[C@H]1C(=O)N[C@H]1CCC(=O)NCCCC[C@@H](C(N)=O)NC(=O)[C@H](CC(C)C)NC(=O)[C@H](CCC(=O)O)NC(=O)[C@H](CCC(=O)O)NC(=O)[C@@H]2CCCN2C(=O)[C@@H]2CCCN2C(=O)[C@H](CO)NC1=O [uPAcyclin] (Ac-KPESPPEELK-NH2; lactam 3-10)
reduction of vessel formation (VM, branching points) (U87-MG cells [1]; 1 nM peptide): 40%
reduction of vessel formation (VM, branching points) (U87-MG cells [1]; 100 nM peptide): 70%
reduction of vessel formation (VM, branching points) (U251-MG cells [2]; 1 nM peptide): 50%
reduction of vessel formation (VM, branching points) (U251-MG cells [2]; 100 nM peptide): 80%
growth rate / proliferation rate (U87-MG cells [3]): similar
growth rate / proliferation rate (U251-MG cells [4]): similar
